Patent US20090275583A1, “ANTIVIRAL COMPOUNDS AND USE THEREOF” (Myriad Genetics, Incorporated, priority 2006, published 2009)

How the values were obtained:
HIV-1NL4-3 = test: P4-MAGI assay; assay type: cell-based; conditions: Human immunodeficiency virus 1, 24 h, P4 cells, 24 hour incubation, β-galactosidase expression; read-out: P4-MAGI IC50
Method in brief: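 HeLa-derived CD4+ P4 cells carrying an LTR-driven lacZ were infected with HIV-1NL4-3 at MOI 1 with DEAE-Dextran, then compound added in increasing concentrations right after virus; infection reported as Tat-induced β-galactosidase. TC50 measured by WST-1 in mock-infected cells.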

[1] = test system: HIV-1 laboratory strain, NL4-3; test: MT-4 cytoprotection assay; assay type: cell-based; conditions: Human immunodeficiency virus 1, NL43, MT4, 96 h; MT-4 cells, four days incubation, WST-1 readout; read-out: MT4 EC50
Method in brief: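 MT-4 cells mock- or batch-infected with NL4-3 (MOI 0.0005) for 2 h, washed, then cultured 4 days with increasing compound concentrations. Viability read by WST-1 tetrazolium reduction: cytoprotection in infected cells, toxicity in mock-infected cells.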

SMILES	IC50 (HIV-1NL4-3) [nM]	EC50 [1] [nM]
C=C(C)[C@@H]1CC[C@]2(C(=O)NCCc3cccc(C(=O)NCc4ccc(O)cc4)c3)CC[C@]3(C)C(CCC4[C@@]5(C)CC[C@H](O)C(C)(C)C5CC[C@]43C)C12 (stereo partly drawn) [Example 188]	12	37
C=C(C)[C@@H]1CC[C@]2(C(=O)NCCc3cccc(C(=O)NCc4ccc(C(=O)NCc5cccnc5C(=O)OC)cc4)c3)CC[C@]3(C)C(CCC4[C@@]5(C)CC[C@H](O)C(C)(C)C5CC[C@]43C)C12 (stereo partly drawn) [Example 189]	4	25
C=C(C)[C@@H]1CC[C@]2(C(=O)NCCc3cccc(C(=O)NCc4ccc(NCCCN5CCOCC5)cc4)c3)CC[C@]3(C)C(CCC4[C@@]5(C)CC[C@H](O)C(C)(C)C5CC[C@]43C)C12 (stereo partly drawn) [Example 191]	29	16
C=C(C)[C@@H]1CC[C@]2(C(=O)NCCc3cccc(C(=O)NCc4ccc(C(=O)NCCN5CCNCC5)cc4)c3)CC[C@]3(C)C(CCC4[C@@]5(C)CC[C@H](O)C(C)(C)C5CC[C@]43C)C12 (stereo partly drawn) [Example 192]	7	7
C=C(C)[C@@H]1CC[C@]2(C(=O)NCCc3cccc(C(=O)NCc4ccc(C(=O)NCc5cccnc5C(=O)O)cc4)c3)CC[C@]3(C)C(CCC4[C@@]5(C)CC[C@H](O)C(C)(C)C5CC[C@]43C)C12 (stereo partly drawn) [Example 193]	9	2
C=C(C)[C@@H]1CC[C@]2(C(=O)NCCc3cccc(C(=O)NCc4ccc(C(=O)N5CCNC(C(=O)O)C5)cc4)c3)CC[C@]3(C)C(CCC4[C@@]5(C)CC[C@H](O)C(C)(C)C5CC[C@]43C)C12 (stereo partly drawn) [Example 194]	18	16
C=C(C)[C@@H]1CC[C@]2(C(=O)NCCc3cccc(C(=O)NCc4ccc(C(=O)NCc5ncccc5C(=O)O)cc4)c3)CC[C@]3(C)C(CCC4[C@@]5(C)CC[C@H](O)C(C)(C)C5CC[C@]43C)C12 (stereo partly drawn) [Example 195]	6	5
C=C(C)[C@@H]1CC[C@]2(C(=O)NCCc3cccc(C(=O)NCc4ccc(OCCCN5CCOCC5)cc4)c3)CC[C@]3(C)C(CCC4[C@@]5(C)CC[C@H](O)C(C)(C)C5CC[C@]43C)C12 (stereo partly drawn) [Example 196]	13	12.5
C=C(C)[C@@H]1CC[C@]2(C(=O)NCCc3cccc(C(=O)NCc4ccccc4O)c3)CC[C@]3(C)C(CCC4[C@@]5(C)CC[C@H](O)C(C)(C)C5CC[C@]43C)C12 (stereo partly drawn) [Example 198]	57.6	468
C=C(C)[C@@H]1CC[C@]2(C(=O)NCCc3cccc(C(=O)NCc4ccccc4)c3)CC[C@]3(C)C(CCC4[C@@]5(C)CC[C@H](O)C(C)(C)C5CC[C@]43C)C12 (stereo partly drawn) [Example 199]	53.2	297
C=C(C)[C@@H]1CC[C@]2(C(=O)NCCc3cccc(C(=O)NCc4ccccc4OC)c3)CC[C@]3(C)C(CCC4[C@@]5(C)CC[C@H](O)C(C)(C)C5CC[C@]43C)C12 (stereo partly drawn) [Example 200]	76.3	759
C=C(C)[C@@H]1CC[C@]2(C(=O)NCCc3cccc(C(=O)NCc4ccc(C(=O)OC)cn4)c3)CC[C@]3(C)C(CCC4[C@@]5(C)CCC(=O)C(C)(C)C5CC[C@]43C)C12 (stereo partly drawn) [Example 201]	28.8	15.5
C=C(C)[C@@H]1CC[C@]2(C(=O)NCCc3cccc(C(=O)NCc4ccc(C(=O)O)cn4)c3)CC[C@]3(C)C(CCC4[C@@]5(C)CCC(=O)C(C)(C)C5CC[C@]43C)C12 (stereo partly drawn) [Example 202]	22.2	20.5
C=C(C)[C@@H]1CC[C@]2(C(=O)NCCc3cccc(C(=O)NCc4cccc(COCc5cccc(C(=O)O)c5)c4)c3)CC[C@]3(C)C(CCC4[C@@]5(C)CC[C@H](O)C(C)(C)C5CC[C@]43C)C12 (stereo partly drawn) [Example 208]	28.9	42.5
C=C(C)[C@@H]1CC[C@]2(C(=O)NCCc3cccc(C(=O)NCC4CCC(C(=O)OC)CC4)c3)CC[C@]3(C)C(CCC4[C@@]5(C)CC[C@H](O)C(C)(C)C5CC[C@]43C)C12 (stereo partly drawn) [Example 210]	30.8	33
C=C(C)[C@@H]1CC[C@]2(C(=O)NCCc3cccc(C(=O)NCC4CCC(C(=O)O)CC4)c3)CC[C@]3(C)C(CCC4[C@@]5(C)CC[C@H](O)C(C)(C)C5CC[C@]43C)C12 (stereo partly drawn) [Example 211]	11.2	19
C=C(C)[C@@H]1CC[C@]2(C(=O)NCCc3cccc(C(=O)NCC4(CC(=O)O)CCCCC4)c3)CC[C@]3(C)C(CCC4[C@@]5(C)CC[C@H](O)C(C)(C)C5CC[C@]43C)C12 (stereo partly drawn) [Example 212]	85	96.5

SMILES	IC50 (HIV-1NL4-3) [nM]	EC50 [1] [nM]
C=C(C)[C@@H]1CC[C@]2(C(=O)NCCc3cccc(C(=O)N[C@H](C)C4CCC(C(=O)OC)CC4)c3)CC[C@]3(C)C(CCC4[C@@]5(C)CC[C@H](O)C(C)(C)C5CC[C@]43C)C12 (stereo partly drawn) [Example 213]	38.9	22
C=C(C)[C@@H]1CC[C@]2(C(=O)NCCc3cccc(C(=O)NCC4OC5OC(C)(C)O[C@@H]5[C@@H](O)[C@@H]4O)c3)CC[C@]3(C)C(CCC4[C@@]5(C)CC[C@H](O)C(C)(C)C5CC[C@]43C)C12 (stereo partly drawn) [Example 214]	200	214
C=C(C)[C@@H]1CC[C@]2(C(=O)NCCc3cccc(C(=O)N[C@H](C)C4CCC(C(=O)O)CC4)c3)CC[C@]3(C)C(CCC4[C@@]5(C)CC[C@H](O)C(C)(C)C5CC[C@]43C)C12 (stereo partly drawn) [Example 215]	22	11.5
C=C(C)[C@@H]1CC[C@]2(C(=O)NCCc3cccc(-c4nnc(Cc5ccc(C#N)cc5)o4)c3)CC[C@]3(C)C(CCC4[C@@]5(C)CC[C@H](O)C(C)(C)C5CC[C@]43C)C12 (stereo partly drawn) [Example 216]	66.5	2700
C=C(C)[C@@H]1CC[C@]2(C(=O)NCCc3cccc(-c4nnc(Cc5ccc(-c6nn[nH]n6)cc5)o4)c3)CC[C@]3(C)C(CCC4[C@@]5(C)CC[C@H](O)C(C)(C)C5CC[C@]43C)C12 (stereo partly drawn) [Example 217]	87	49
C=C(C)[C@@H]1CC[C@]2(C(=O)NCCc3cccc(C(=O)NCc4ccc(C(=O)N[C@H](CC(=O)OC)C(=O)OC)cn4)c3)CC[C@]3(C)C(CCC4[C@@]5(C)CC[C@H](O)C(C)(C)C5CC[C@]43C)C12 (stereo partly drawn) [Example 221]	9	35
C=C(C)[C@@H]1CC[C@]2(C(=O)NCCc3cccc(C(=O)NCc4ccc(C(=O)N[C@H](CC(=O)O)C(=O)O)cn4)c3)CC[C@]3(C)C(CCC4[C@@]5(C)CC[C@H](O)C(C)(C)C5CC[C@]43C)C12 (stereo partly drawn) [Example 222]	65.7	727
C=C(C)[C@@H]1CC[C@]2(C(=O)NCCc3cccc(C(=O)NCc4ccc(C(=O)N[C@H](CCC(=O)OC)C(=O)OC)cn4)c3)CC[C@]3(C)C(CCC4[C@@]5(C)CC[C@H](O)C(C)(C)C5CC[C@]43C)C12 (stereo partly drawn) [Example 223]	21.7	21
C=C(C)[C@@H]1CC[C@]2(C(=O)NCCc3cccc(C(=O)NCc4ccc(C(=O)N[C@H](CCC(=O)O)C(=O)O)cn4)c3)CC[C@]3(C)C(CCC4[C@@]5(C)CC[C@H](O)C(C)(C)C5CC[C@]43C)C12 (stereo partly drawn) [Example 224]	35.5	258
C=C(C)[C@@H]1CC[C@]2(C(=O)NCCc3cccc(C(=O)NCc4ccc(C(=O)NC(C(=O)O)C(N)C(=O)O)cn4)c3)CC[C@]3(C)C(CCC4[C@@]5(C)CC[C@H](O)C(C)(C)C5CC[C@]43C)C12 (stereo partly drawn) [Example 225]	38.5	53
C=C(C)[C@@H]1CC[C@]2(C(=O)NCCc3cccc(C(=O)NCc4ccc(C(=O)N[C@H](C(=O)O)C(C)C)cn4)c3)CC[C@]3(C)C(CCC4[C@@]5(C)CC[C@H](O)C(C)(C)C5CC[C@]43C)C12 (stereo partly drawn) [Example 226]	11.8	102
C=C(C)[C@@H]1CC[C@]2(C(=O)NCCc3cccc(C(=O)NCc4ncccc4C(=O)OC)c3)CC[C@]3(C)C(CCC4[C@@]5(C)CC[C@H](O)C(C)(C)C5CC[C@]43C)C12 (stereo partly drawn) [Example 227]	67.5	761
C=C(C)[C@@H]1CC[C@]2(C(=O)NCCc3cccc(C(=O)NCc4cccnc4C(=O)OC)c3)CC[C@]3(C)C(CCC4[C@@]5(C)CC[C@H](O)C(C)(C)C5CC[C@]43C)C12 (stereo partly drawn) [Example 229]	7	44
C=C(C)[C@@H]1CC[C@]2(C(=O)NCCc3cccc(C(=O)NCc4cccnc4C(=O)O)c3)CC[C@]3(C)C(CCC4[C@@]5(C)CC[C@H](O)C(C)(C)C5CC[C@]43C)C12 (stereo partly drawn) [Example 230]	56	300
C=C(C)[C@@H]1CC[C@]2(C(=O)NCCc3cccc(C(=O)NCc4ccc(OCCCn5ccnc5)cc4)c3)CC[C@]3(C)C(CCC4[C@@]5(C)CC[C@H](O)C(C)(C)C5CC[C@]43C)C12 (stereo partly drawn) [Example 231]	14.2	18.5
C=C(C)[C@@H]1CC[C@]2(C(=O)NCCc3cccc(C(=O)NCc4ccc(OCCCO)cc4)c3)CC[C@]3(C)C(CCC4[C@@]5(C)CC[C@H](O)C(C)(C)C5CC[C@]43C)C12 (stereo partly drawn) [Example 232]	38.5	71.5
